From patent publication US11708413B2 (priority 2016, dated 2023)

How the values were obtained:
OPM-2 (MM) cells = test: Cell killing assay (cell proliferation, Cell Titer-Glo), OPM-2 (MM); format: cell-based; settings: 72 hrs, NK = no killing
Protocol: (§1) Cell lines tested included B-lymphoma, multiple myeloma, and leukemia cells.
(§2) Cytotoxicity effects of the free drug linkers and conjugates were measured with a cell proliferation assay. A total of 12500 cells in a volume of 25 μl were seeded in a 384-well flat bottom white polystyrene plate on the day of assay. Free drug-linkers and conjugates were formulated at 2× starting concentration (1000 nM for free drug linkers and 100 nM for ADCs) in RPMI medium and filtered through MultiScreen HTS 96-Well Filter Plates (Millipore). Filter sterilized samples were serial diluted (1:3) under sterile conditions and added into treatment wells. Plates were cultured at 37° C. in a CO2 incubator for 72 hrs. For cell viability measurement, 30 μl of Cell Titer-Glo® reagent (Promega Corp.) was added into each well, and plates processed as per product instructions. Relative luminescence was measured on an ENVISION® plate reader (Perkin-Elmer; Waltham, Mass.). Relative luminescence readings were converted to % viability using untreated cells as controls. Data was fitted with non-linear regression analysis, using log(inhibitor) vs. response, variable slope, 4 parameter fit equation using GraphPad Prism. Data was expressed as % relative cell viability vs. dose of free drug-linker or conjugate in nM.
(§3) Each of Conjugates A-F was evaluated for the ability to bind and kill cells expressing CD74. […]

RPMI-6666 (HL) cells = test: cells; format: cell-based
Protocol: as §1, §2, §1

BDCM (AML) cells = test: cells; format: cell-based
Protocol: as §1, §2, §1

JVM-13 (CLL) cells = test: cells; format: cell-based
Protocol: as §1, §2, §1

ARD (MM) cells = test: cells; format: cell-based
Protocol: as §1, §2, §1

SUP-B15 (ALL) cells = test: cells; format: cell-based
Protocol: as §1, §2, §1

RPMI-8226 (MM) cells = test: cells; format: cell-based
Protocol: as §1, §2
Each of Conjugates A-F was evaluated for the ability to bind and kill cells expressing CD74. Cell lines tested included B-lymphoma, multiple myeloma, and leukemia cells. Controls included unconjugated anti-CD74 antibody.

ARP-1 (MM) cells = format: cell-based, human
Protocol: as §1, §2, §1

K562 (CML) cells = test: Cell killing assay (cell proliferation, Cell Titer-Glo), K562 (CML); format: cell-based; settings: 72 hrs, NK = no killing
Protocol: as §1, §2, §3

SU-DHL-6 (NHL) cells = test: cells; format: cell-based, human
Protocol: as §1, §2, §1

COc1cc2cc(c1Cl)N(C)C(=O)C[C@H](OC(=O)[C@H](C)N(C)C(=O)CCCC(=O)N(C)CCOCCOCCOCCOCc1cn(C)nn1)[C@]1(C)O[C@H]1[C@H](C)[C@@H]1C[C@@](O)(NC(=O)O1)[C@H](OC)/C=C/C=C(/C)C2 [Conjugate B]
IC50 (OPM-2 (MM) cells): > 0.05 µM | IC50 (RPMI-6666 (HL) cells; 72 h): 0.0013 µM | Cell Killing Activity Span (RPMI-6666 (HL) cells; RPMI-6666 (HL) cells, 72 hrs, Cell Titer-Glo, NK = no killing): 89% | IC50 (BDCM (AML) cells; 72 h): 0.015 µM | Cell Killing Activity Span (BDCM (AML) cells; BDCM (AML) cells, 72 hrs, Cell Titer-Glo, NK = no killing): 95% | IC50 (JVM-13 (CLL) cells; 72 h): 0.002 µM | Cell Killing Activity Span (JVM-13 (CLL) cells; JVM-13 (CLL) cells, 72 hrs, Cell Titer-Glo, NK = no killing): 69% | IC50 (ARD (MM) cells; 72 h): 0.031 µM | Cell Killing Activity Span (ARD (MM) cells; ARD (MM) cells, 72 hrs, Cell Titer-Glo, NK = no killing): 53% | IC50 (SUP-B15 (ALL) cells; 72 h): 0.0057 µM | Cell Killing Activity Span (SUP-B15 (ALL) cells; SUP-B15 (ALL) cells, 72 hrs, Cell Titer-Glo, NK = no killing): 72% | IC50 (RPMI-8226 (MM) cells; 72 h): 0.051 µM | Cell Killing Activity Span (RPMI-8226 (MM) cells; RPMI-8226 (MM) cells, 72 hrs, Cell Titer-Glo, NK = no killing): 41% | IC50 (ARP-1 (MM) cells; 72 h): 0.016 µM | Cell Killing Activity Span (ARP-1 (MM) cells; ARP-1 (MM) cells, 72 hrs, Cell Titer-Glo, NK = no killing): 82% | IC50 (K562 (CML) cells): > 0.05 µM | IC50 (SU-DHL-6 (NHL) cells; 72 h): 0.0013 µM | Cell Killing Activity Span (SU-DHL-6 (NHL) cells; SU-DHL-6 (NHL) cells, 72 hrs, Cell Titer-Glo, NK = no killing): 98%
